The target in the experiment is T1, hROMK (hKir1.1) (Homo sapiens, UniProt P48048).
T1 construct: expressed in transfected cells
T1 sequence (P48048 1-391): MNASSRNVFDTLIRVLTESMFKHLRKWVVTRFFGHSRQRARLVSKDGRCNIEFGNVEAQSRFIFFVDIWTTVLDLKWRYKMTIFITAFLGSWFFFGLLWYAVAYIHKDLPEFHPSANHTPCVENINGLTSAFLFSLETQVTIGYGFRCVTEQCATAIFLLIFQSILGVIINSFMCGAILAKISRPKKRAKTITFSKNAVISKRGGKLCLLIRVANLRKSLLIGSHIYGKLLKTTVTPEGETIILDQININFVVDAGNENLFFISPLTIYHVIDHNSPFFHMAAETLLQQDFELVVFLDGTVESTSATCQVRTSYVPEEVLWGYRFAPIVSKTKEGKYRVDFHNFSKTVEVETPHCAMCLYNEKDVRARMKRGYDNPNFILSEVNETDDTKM
As to the kind of experiment: Thallium Flux Assay. Type of experiment: cell-based. Here is the method: Cell Culture Conditions- HEK293 cells stably expressing hROMK (hKir1.1) were grown at 37°C in a 10%CO2 humidified incubator in complete growth media: Dulbecco's Modified Eagle Medium supplemented with non-essential amino acids, Penicillin/Streptomycin/Glutamine, G418 and FBS. At >80% confluency, aspirate the media from the flask and rinse with 10 mL Calcium/Magnesium-free PBS. […] To dislodge the cell, gently bang the side of the flask with your hand. Triturate the cells completely and then transfer the cells to 25 mL complete media. Centrifuge at 1,500 rpm for 6 min followed by resuspension in complete growth media and determine cell concentration. […] Under ideal growth conditions and appropriate tissue culture practices, this cell line is stable for 40-45 passages.
• FluxOR™ Reagent (Component A) • FluxOR™ Assay Buffer (Component B) - 10X Concentrate • PowerLoad™ Concentrate (Component C) - 100X Concentrate • Probenecid (Component D) - Lyophilized sample is kept at -20°C. Water soluble, 100X after solubilization in 1 mL water. […] Store at 4°C. • Thallium sulfate (Tl2SO4) Concentrate (Component G) - 50 mM in water. Store at 4°C • DMSO (dimethyl sulfoxide, Component H) - 1 mL (100%)
• 1000X FluxOR™ Reagent: Reconstitute a vial of component A in 100 µl DMSO; Mix well; Store 10 µl aliquots at -20°C • 1X FluxOR™ Assay Buffer: Dilute Component B 10-fold with water; Adjust pH to 7.4 with Hepes/NaOH; Filter and store at 4°C • Probenecid/Assay Buffer: 100 mL of 1X FluxOR™ Assay Buffer; 1 mL of reconstituted component D; Store at 4°C • Loading Buffer (per microplate): 10 µl 1000X FluxOR™ Reagent; 100 µl component C; 10 mL Probenecid/Assay Buffer • Compound Buffer (per microplate): 20 mL Probenecid/Assay Buffer; 0.3 mM ouabain (10 mM ouabain in water can be stored in amber bottle/aluminum foil at room temperature); Test compound • 1X FluxOR™Chloride-Free Buffer: Prepare 1X working solution in water. Can be stored at room temperature • Stimulant Buffer (prepared at 5X final concentration in 1X FluxOR™Chloride-Free Buffer): 7.5 mM Thallium sulfate and 0.75 mM Potassium sulfate (to give a final assay concentration of 3 mM Thallium/ 0.3 mM Potassium). Store at 4°C when not in use. If kept sterile, this solution is good for months.
Assay protocol- The ROMK channel functional thallium flux assay is performed in 384 wells, using the FLIPR-Tetra instrument. HEK-hKir1.1 cells are seeded in Poly-D-Lysine microplates and kept in a 37°C-10%CO2 incubator overnight. On the day of the experiment, the growth media is replaced with the FluxOR™ reagent loading buffer and incubated, protected from light, at ambient temperature (23-25°C) for 90 min. The loading buffer is replaced with assay buffer ± test compound followed by 30 min incubation at ambient temperature, where the Thallium/Potassium stimulant is added to the microplate.
• 1. Seed HEK-hKir1.1 cells (50 µl at 20,000 cells/well) in 384-well PDL coated Microplates • 2. Allow cells to adhere overnight in humidified 37°C/10%CO2 incubator • 3. Completely remove cell growth media from microplate and replace with 25 µl loading buffer • 4. Incubate Microplate at room temperature, protected form light, for 90 min • 5. Remove loading buffer and replace with 25 µl 1x Assay Buffer ± test compound. • 6. Incubate microplate at room temperature, protected form light, for 30 min • 7. […] Excitation = 400 nm, Emission = 460 & 580 nm. Collect data for ∼ 10 min.
Data Calculation- The fluorescence intensity of wells containing 3 µM of a standard control ROMK inhibitor of the present invention is used to define the ROMK-sensitive component of thallium flux. Fluorescence in the presence of test compounds is normalized to control values to provide % fluorescence change.

Setting [1] is: HEK293 cells stably expressing hROMK (hKir1.1), FLIPR-Tetra, read-out: Thallium Flux IC50.

Like-named read-outs stand apart in the source and are kept apart here.

Where the note is “Thallium Flux IC50”, `Cc1c(C#N)cccc1[C@@H]1CN2CCN(C(=O)Cc3ccc(-n4cnnn4)nc3)C[C@H]2CO1` [Example 91, 2-methyl-3-[(3R,9aS)-8-{[6-(1H-tetrazol-1-yl)pyridin-3-yl]acetyl}octahydropyrazino[2,1-c][1,4]oxazin-3-yl]benzonitrile] gave an IC50 of 60 nM.

As to `Cc1c([C@H]2CN3CCN(C(=O)Cc4ccc(-n5cnnn5)nc4)C[C@H]3CO2)ccc2nonc12` [Example 176, (3S,9aS)-3-(4-methyl-2,1,3-benzoxadiazol-5-yl)-8-{[6-(1H-tetrazol-1-yl)pyridin-3-yl]acetyl}octahydropyrazino[2,1-c][1,4]oxazine], the IC50 under setting [1] was 200 nM.

In the case of `N#Cc1c(F)cc([C@H]2CN3CCN(C(=O)Cc4ccc(-n5cnnn5)nc4)C[C@@H]3CO2)cc1F` [Example 108, 2,6-difluoro-4-[(3S,9aR)-8-{[6-(1H-tetrazol-1-yl)pyridin-3-yl]acetyl}octahydropyrazino[2,1-c][1,4]oxazin-3-yl]benzonitrile], under setting [1], the concentration for half-maximal inhibition (IC50) came out at 490 nM.

Under “Thallium Flux IC50”, `Cc1nc(-n2cnnn2)ncc1CC(=O)N1CCN2C[C@@H](c3ccc(F)c(C#N)c3C)OC[C@@H]2C1` [Example 118, 6-fluoro-2-methyl-3-[(3R,9aS)-8-{[4-methyl-2-(1H-tetrazol-1-vl)pvrimidin-5-yl]acetyl}octahydropyrazino[2,1-c][1,4]oxazin-3-yl]benzonitrile] registered a half-maximal inhibitory concentration (IC50) of 120 nM.

Consider `O=C1OCc2cc([C@H]3CN4CCN(C(=O)Cc5ccc(-n6cnnn6)cn5)C[C@H]4CO3)ccc21` [Example 28, 5-[(3S,9aS)-8-{[5-(1H-tetrazol-1-yl)pyridin-2-yl]acetyl}octahydropyrazino[2,1-c][1,4]oxazin-3-yl]-2-benzofuran-1(3H)-one], for which the concentration for half-maximal inhibition (IC50) under setting [1] was determined as 180 nM.

Turning to `Cc1c([C@H]2CN3CCN(C(=O)Cc4cnc(-n5cnnn5)cn4)C[C@H]3CO2)ccc2c1COC2=O` [Example 83], under “Thallium Flux IC50”, inhibition was half-maximal at 160 nM (IC50).

In the case of `Cc1c([C@H]2CN3CCN(C(=O)Cc4ccc(-n5cnnn5)nc4)C[C@H]3CO2)csc1C#N` [Example 69, 3-methyl-4-[(3S,9aS)-8-{[6-(1H-tetrazol-1-yl)pyridin-3-yl]acetyl}octahydropyrazino[2,1-c][1,4]oxazin-3-yl]thiophene-2-carbonitrile], under setting [1], the IC50 was 110 nM.

For the setting “Thallium Flux IC50”, `Cc1nc(-n2cnnn2)ncc1CC(=O)N1CCN2C[C@H](c3ccc(F)c(C#N)c3C)OC[C@H]2C1` [Example 119, 6-fluoro-2-methyl-3-[(3S,9aR)-8-{[4-methyl-2-(1H-tetrazol-1-vl)pvrimidin-5-yl]acetyl}octahydropyrazino[2,1-c][1,4]oxazin-3-yl]benzonitrile] had an IC50 of 330 nM.

The molecule `Cc1cc(-n2cnnn2)cnc1CC(=O)N1CCN2C[C@@H](c3ccc(F)c(C#N)c3C)OC[C@@H]2C1` [Example 84, 6-fluoro-2-methyl-3-[(3R,9aS)-8-{[3-methyl-5-(1H-tetrazol-1-vl)pvridin-2-yl]acetyl}octahydropyrazino[2,1-c][1,4]oxazin-3-yl]benzonitrile] returned a 50% inhibitory concentration (IC50) (Thallium Flux IC50) of 230 nM.

As to `N#Cc1ccc([C@H]2CN3CCN(C(=O)Cc4ccc(-n5cnnn5)nc4)C[C@H]3CO2)cc1F` [Example 67, 2-fluoro-4-[(3S,9aS)-8-{[6-(1H-tetrazol-1-yl)pyridin-3-yl]acetyl}octahydropyrazino[2,1-c][1,4]oxazin-3-yl]benzonitrile], the 50% inhibitory concentration (IC50) under setting [1] came to 70 nM.

Take `C[C@H]1Cc2cc([C@]3(C)CN4CCN(C(=O)Cc5ccc(-n6cnnn6)nc5)C[C@H]4CO3)ccc2C(=O)O1` [Example 106, (3S)-3-methyl-6-[(3R,9aS)-3-methyl-8-{[6-(1H-tetrazol-1-yl)pyridin-3-yl]acetyl}octahydropyrazino[2,1-c][1,4]oxazin-3-yl]-3,4-dihydro-1H-isochromen-1-one]: the half-inhibitory concentration (IC50) under setting [1] came out at 420 nM.

Consider `C[C@@H]1Cc2cc([C@@H]3CN4CCN(C(=O)Cc5cnc(-n6cnnn6)nc5)C[C@H]4CO3)ccc2C(=O)O1` [Example 19], for which 160 nM corresponded to half-maximal inhibition (Thallium Flux IC50) (IC50).

Consider `Cc1c([C@H]2CN3CCN(C(=O)Cc4cccc(-n5cnnn5)n4)C[C@@H]3CO2)ccc(F)c1C#N` [Example 160, 6-fluoro-2-methyl-3-[(3S,9aR)-8-{[6-(1H-tetrazol-1-yl)pyridin-2-yl]acetyl}octahydropyrazino[2,1-c][1,4]oxazin-3-yl]benzonitrile], for which, under setting [1], the half-inhibitory concentration (IC50) came to 390 nM.

Take `Cc1c([C@H]2CN3CCN(C(=O)Cc4cncc(-n5cnnn5)c4)C[C@H]3CO2)ccc(F)c1C#N` [Example 101, 6-fluoro-2-methyl-3-[(3S,9aS)-8-{[5-(1H-tetrazol-1-yl)pyridin-3-y]acetyl}octahydropyrazino[2,1-c][1,4]oxazin-3-yl]benzonitrile]: the IC50 under setting [1] is 180 nM.

On to `N#Cc1c(F)cc([C@@H]2CN3CCN(C(=O)Cc4ccc(-n5cnnn5)nc4)C[C@@H]3CO2)cc1F` [Example 107, 2,6-difluoro-4-[(3R,9aR)-8-{[6-(1H-tetrazol-1-yl)pyridin-3-yl]acetyl}octahydropyrazino[2,1-c][1,4]oxazin-3-yl]benzonitrile], for which, under setting [1], the 50% inhibitory concentration (IC50) came out at 170 nM.

For the molecule `Cc1c(C#N)cccc1[C@H]1CN2CCN(C(=O)Cc3ccc(-n4cnnn4)nc3)C[C@H]2CO1` [Example 90, 2-methyl-3-[(3S,9aS)-8-{[6-(1H-tetrazol-1-yl)pyridin-3-yl]acetyl}octahydropyrazino[2,1-c][1,4]oxazin-3-yl]benzonitrile], the 50% inhibitory concentration (IC50) (Thallium Flux IC50) was 130 nM.

In turn, `Cc1cc(CC(=O)N2CCN3C[C@H](c4ccc(F)c(C#N)c4C)OC[C@@H]3C2)ncc1-n1cnnn1` [Example 130, 6-fluoro-2-methyl-3-[(3S,9aS)-8-{[4-methyl-5-(1H-tetrazol-1-yl)pyridin-2-yl]acetyl}octahydropyrazino[2,1-c][1,4]oxazin-3-yl]benzonitrile] registered an IC50 (Thallium Flux IC50) of 190 nM.

Consider `Cc1nc(CC(=O)N2CCN3C[C@H](c4ccc(F)c(C#N)c4C)OC[C@H]3C2)ccc1-n1cnnn1` [Example 131, 6-fluoro-2-methyl-3-[(3S,9aR)-8-{[6-methyl-5-(1H-tetrazol-1-vl)pvridin-2-yl]acetul}octahydropyrazino[2,1-c][1,4]oxazin-3-yl]benzonitrile], for which, under setting [1], the 50% inhibitory concentration (IC50) was 200 nM.

For `Cc1cc(-n2cnnn2)ncc1CC(=O)N1CCN2C[C@@H](c3ccc4c(c3)CCOC4=O)OC[C@@H]2C1` [Example 44, 6-[(3R,9aS)-8-{[4-methyl-6-(1H-tetrazol-1-yl)pyridin-3-yl]acetyl}octahydropyrazino[2,1-c][1,4]oxazin-3-yl]-3,4-dihydro-1H-isochromen-1-one], the IC50 under setting [1] stood at 170 nM.

Turning to `Cc1cc(-n2cnnn2)ncc1CC(=O)N1CCN2C[C@H](c3ccc(F)c(C#N)c3C)OC[C@@H]2C1` [Example 43, 6-fluoro-2-methyl-3-[(3S,9aS)-8-{[4-methyl-6-(1H-tetrazol-1-vl)pvridin-3-yl]acetyl}octahydropyrazino[2,1-c][1,4]oxazin-3-yl]benzonitrile], for the setting “Thallium Flux IC50”, the half-inhibitory concentration (IC50) came out at 90 nM.

What is called IC50 is the point on the concentration scale where inhibition reaches its midpoint.

These data come from patent EP2790511B1 (Merck Sharp & Dohme Corp., priority 2011, dated 2013).
